Data on eleven molecules can be found in patent US20130052172A1, “METHODS FOR DIAGNOSING AND TREATING CARDIAC DEFECTS” (priority 2011, published 2013).

“Also recorded” adds a separate entry of the source. Positions of bridges follow the written chain, without caps; N, C: chain ends. Non-standard residues stand in square brackets, D forms with d. Residues, ends and D or L forms follow the SMILES beside them. *: point of attachment. Ileψ(thiazoline)Cys = CC[C@H](C)[C@H](N)C1=N[C@H](C(=O)*)CS1; dOrn = NCCC[C@@H](N)C(=O)O

Test [1] concerns isolated hearts. Put plainly: In vitro global ischemia/reperfusion of isolated perfused hearts, infarct size and recovery of LVDP. More on the design: species or system rat. To be noted: for effect of inhibitor alone on cardioprotection: inhibitor perfused prior to ischemia/reperfusion, no vancomycin. The procedure: (§1) For in vitro ischemia/reperfusion studies, hearts were perfused retrogradely, as described previously in Baker, J. et al. (Am. J. Physiol. Heart Circ. Physiol., 2000), the entirety of which is incorporated herein by reference. Briefly, hearts were perfused with modified Krebs-Henseleit buffer (120 mM NaCl, 25 mM NaHCO3, 4.7 mM KCl, 1.2 mM KH2PO4, 1.20 mM MgSO4, 11 mM glucose, and 1.8 mM CaCl2) bubbled with 95% O2-5% CO2 for a 40-minute stabilization period and subjected to 25 minutes of global no-flow ischemia, followed by 180 minutes of reperfusion. Before use, all perfusion fluids were filtered through cellulose acetate membranes with a pore size of 5.0 μm to remove particulate matter. Hearts were kept in temperature-controlled chambers to maintain myocardial temperature at 37° C. A balloon connected to a pressure transducer was inserted into the left ventricle to monitor cardiac function. For some experiments, hearts were stabilized for 25 minutes and then perfused with vancomycin or a mixture of antibiotics for 15 minutes before ischemia/reperfusion. During the initial 40 minute reperfusion period, recovery of mechanical function was measured as left ventricular developed pressure (LVDP) under steady-state conditions and expressed as a percentage of preischemic LVDP. At the end of the 3 hour reperfusion period, hearts were processed and stained with 2,3,5-triphenyltetrazolium chloride dye for IS determination.

For test [2], the system named is rats. Put plainly: Myocardial ischemia/reperfusion by the protocol of example 3 (model not given). It is filed as in vivo, rat. The following applies: Dahl S rats, single antibiotic in drinking water (60 or 120 mg/kg/day).
Description: In the following example, methods for assaying myocardial infarction in vitro and in vivo in rats as determined by ischemia/reperfusion studies are described.
(§2) An anesthetized rat model was used for in vivo ischemia/reperfusion studies using the general surgical protocol and determination of infarct size (IS) described in “K(ATP) opener-induced delayed cardioprotection: involvement of sarcolemmal and mitochondrial K(ATP) channels, free radicals and MEK½” (Gross, E. et al., J. Mol. Cell. Cardiol. 35, 985-992, 2003), the entirety of which is incorporated herein by reference. Briefly, following anesthesia, a tracheotomy for artificial ventilation was performed, with the left common carotid artery cannulated for blood pressure and heart rate measurements. A thoracotomy was performed at the fifth intercostal space, the pericardium was excised, and a silk ligature was placed distal to the left atrial appendage that spanned to the sternal portion of the left ventricle, which included the left anterior descending coronary artery. Occlusion of the area described [area at risk (AAR)] was created by placing ends of the ligature through a polypropylene tube and fixing the snare to the epicardial surface with a hemostat. After 30 min, the hemostat was released to reperfuse the AAR. Following 2 h of reperfusion, the ligature was again occluded, and the AAR was determined by patent-blue negative staining. The heart was then excised, cross-sectioned into 4 to 5 slices, and separated into normal zone and AAR. Pieces were incubated in 1% 2,3,5-triphenyltetrazolium chloride to determine IS. The heart was then incubated overnight in 10% formaldehyde, and infarcted tissue was dissected from the AAR. IS was expressed as a percentage of the AAR (IS/AAR). Leptin (0.12 μg/kg) was administered intravenously as a bolus at 24 and 12 h before ischemia. Amino acids were administered intravenously as a bolus at 24 and 12 hours before ischemia or dissolved in the drinking water and given 48 hours before ischemia.
as §1

The subject of test [3] is rat heart. To be noted: pharmacologic preconditioning (Baker 2007, 2008); cited from earlier work.
The test system of test [4] is leptin. In words: Plasma cytokine analysis (leptin). It is filed as in vivo, rat. To be noted: Dahl S rats fed 15 ml/rat/d for 14 d, with or without leptin. The procedure: The concentration of cytokines in blood of rats treated with vancomycin was quantified to identify antibiotic-induced changes. […] Blood samples were kept on ice for 30 min and then centrifuged at 1000 g for 10 min at 4° C. to obtain plasma. Plasma samples were then analyzed to determine the concentration of 23 cytokines (Eve Technologies, Calgary, AB, Canada). Antibiotic was administered continuously via drinking water as described in example 1.

For test [5], the system named is Dahl S rats. Put plainly: In vivo regional myocardial ischemia/reperfusion, infarct size (IS/AAR). More on the design: species or system rat. The following applies: vancomycin 15 mg/kg/day for 72 hours, thrombopoietin i.v. 15 minutes prior to ischemia.
Description: as §2

On to `N#C/C(=C/c1ccc(O)c(O)c1)C(=O)NCc1ccccc1` [AG-490], for which the “effect on ability of vancomycin to reduce myocardial necrosis and enhance ventricular function” value in test [1] (JAK-2 inhibitor 1 μM perfused prior to ischemia/reperfusion, hearts of vancomycin-treated rats) was “partially abolished the ability of vancomycin to reduce myocardial necrosis and to enhance ventricular function”. Further, the “effect of inhibitor alone on cardioprotection” value (“effect of inhibitor alone” below) in test [1] is reported as “no effect on cardioprotection”.

Take `COc1ccc(Cl)cc1C(=O)NCCc1ccc(S(=O)(=O)NC(=O)NC2CCCCC2)cc1` [Glibenclamide, glibenclamide]: the “effect on ability of vancomycin to reduce myocardial necrosis and enhance ventricular function” value in test [1] (KATP channel blocker 3 μM perfused prior to ischemia/reperfusion) was “abolished the ability of vancomycin to reduce myocardial necrosis and to enhance ventricular function”. Also, the “effect of inhibitor alone” value in test [1] is reported as “no effect on cardioprotection”.

For `COc1cccc(-c2cc(=O)c3ccccc3o2)c1N` [PD98059], the “effect of inhibitor alone” value in test [1] was “no effect on cardioprotection”. Further, in test [1] (p42/44 MAPK inhibitor 10 μM perfused prior to ischemia/reperfusion), the “effect on ability of vancomycin to reduce myocardial necrosis and enhance ventricular function” value is “abrogated the ability of vancomycin to reduce myocardial necrosis and to enhance ventricular function”.

Take `C[S+]([O-])c1ccc(-c2nc(-c3ccncc3)c(-c3ccc(F)cc3)[nH]2)cc1` (centres unmarked) [SB 203580]: the “effect of inhibitor alone” value in test [1] is recorded as “no effect on cardioprotection”. The “effect on ability of vancomycin to reduce myocardial necrosis and enhance ventricular function” value in test [1] (p38 MAPK inhibitor 15 μM perfused prior to ischemia/reperfusion) is “abolished the ability of vancomycin to reduce myocardial necrosis and to enhance ventricular function”.

With `CC[C@H](C)[C@H](N)C1=N[C@H](C(=O)N[C@@H](CC(C)C)C(=O)N[C@H](CCC(=O)O)C(=O)N[C@H](C(=O)N[C@H]2CCCCNC(=O)[C@H](CC(N)=O)NC(=O)[C@@H](CC(=O)O)NC(=O)[C@H](Cc3cnc[nH]3)NC(=O)[C@@H](Cc3ccccc3)NC(=O)[C@H]([C@@H](C)CC)NC(=O)[C@@H](CCCN)NC2=O)[C@@H](C)CC)CS1` [bacitracin] ({Ileψ(thiazoline)Cys}-L[dE]IK[dOrn]I[dF]H[dD]N; lactam 4-C), in test [2], the “effect on myocardial infarct size” value is “did not induce protection”.

As to `[H]/N=C(/N)N[C@H]1[C@H](O)[C@@H](O)[C@H](O[C@@H]2O[C@@H](C)[C@](O)(C=O)[C@H]2O[C@@H]2O[C@@H](CO)[C@H](O)[C@@H](O)[C@@H]2NC)[C@@H](N/C(N)=N\[H])[C@@H]1O` [streptomycin], the “effect on myocardial infarct size” value in test [2] is “reduce myocardial infarct size”.

Consider “erythropoietin: pharmacologic preconditioning agent, cited from Baker 2007 (darbepoetin alfa paper)”, for which, in test [3], the “reduction in IS” value is 39%.

For “leptin: 16-kDa, 167-aa polypeptide synthesized and secreted into the circulation primarily by white adipocytes”, in test [1] (Dahl S rats fed 15 ml/rat/d for 14 d, with or without leptin 0.12 μg/kg), the “effect on IS / myocardial infarction” value is reported as “no effect on IS”. Also, the “effect of leptin in the absence of vancomycin pretreatment” value in test [1] (leptin 0.12 μg/kg i.v. at 24 and 12 h before ischemia/reperfusion) is given as “had no effect”. Further, the “effect on probiotic juice-induced cardioprotection” value in test [1] (leptin 0.12 μg/kg i.v. at 24 and 12 h before ischemia/reperfusion, probiotic juice-fed rats) was “abolished probiotic juice-induced cardioprotection; also recorded: reversed”. In test [1] (leptin 0.12 μg/kg i.v. at 24 and 12 h before ischemia/reperfusion, vancomycin-treated rats), the “effect on decrease in IS and increase in recovery of LVDP conferred by vancomycin” value was “abolished the decrease in IS and increase in recovery of LVDP conferred by vancomycin treatment; also recorded: reversed cardioprotection by vancomycin”. In addition, the “effect on leptin levels in blood” value in test [4] is “no effect on leptin levels”.

For the molecule neomycin, the “effect on myocardial infarct size” value in test [2] is “reduce myocardial infarct size”.

Turning to polymyxin B, the “effect on myocardial infarct size” value in test [2] is given as “did not induce protection”.

Take “thrombopoietin: agent of classical pharmacologic preconditioning; human thrombopoietin (Baker 2008)”: the “decrease in infarct size” value in test [5] is listed as 25%. The “reduction in IS” value in test [3] is given as 34%.
